The results in this text go back to patent US20110046131A1, “PURINES AS PKC-THETA INHIBITORS” (N.V. Organon and Pharmacopeia, LLC, priority 2006, published 2011).

pIC50, pKi: −log10 of the molar value.

Holding throughout (type): biochemical
One experiment concerns the target T1, PKCθ (Homo sapiens, UniProt Q04759).
T1 construct: purchased Pan Vera
Description: Ki Pan Vera (PV) potency for PKCθ. The note with it: Ki Pan Vera (PV) of PKCθ. How it is done:
(§1) For Ki Pan Vera (PV) of PKCθ, entries identified with “A” had values below 100 nM; entries identified with “B” had values below 1 μM; and entries identified with “C” had values below 10 μM.

In another experiment the target is T2, PKC delta (Homo sapiens, UniProt Q05655).
T2 construct: purchased Pan Vera
T2 sequence (Q05655 whole entry): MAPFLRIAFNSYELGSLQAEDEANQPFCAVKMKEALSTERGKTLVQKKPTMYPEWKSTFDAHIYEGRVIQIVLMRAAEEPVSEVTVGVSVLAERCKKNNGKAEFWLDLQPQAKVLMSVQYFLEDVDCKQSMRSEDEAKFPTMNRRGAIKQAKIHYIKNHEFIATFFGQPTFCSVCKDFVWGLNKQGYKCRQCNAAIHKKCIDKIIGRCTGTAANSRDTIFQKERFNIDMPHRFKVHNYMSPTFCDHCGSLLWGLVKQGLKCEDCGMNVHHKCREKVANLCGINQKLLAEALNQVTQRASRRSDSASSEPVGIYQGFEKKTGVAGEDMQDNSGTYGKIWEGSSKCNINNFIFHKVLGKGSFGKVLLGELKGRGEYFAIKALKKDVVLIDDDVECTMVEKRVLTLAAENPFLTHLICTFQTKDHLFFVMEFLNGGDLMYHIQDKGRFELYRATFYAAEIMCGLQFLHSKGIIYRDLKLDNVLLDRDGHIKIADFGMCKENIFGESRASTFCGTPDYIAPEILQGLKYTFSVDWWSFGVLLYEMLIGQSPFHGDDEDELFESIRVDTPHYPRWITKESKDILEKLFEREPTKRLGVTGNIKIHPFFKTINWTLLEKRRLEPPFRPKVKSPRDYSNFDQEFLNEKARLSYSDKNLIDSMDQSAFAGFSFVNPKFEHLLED
Description: Ki Pan Vera (PV) potency for PKC delta. The note with it: Ki Pan Vera (PV) of PKC delta. How it is done:
[The source words this procedure for another target and reports this target under the same test.] as §1

Another experiment has as its target T3, PKC alpha (Homo sapiens, UniProt P17252).
T3 construct: purchased Pan Vera
Description: Ki Pan Vera (PV) potency for PKC alpha. As to conditions: Ki Pan Vera (PV) of PKC alpha. How it is done: [The source words this procedure for another target and reports this target under the same test.] as §1

In a further experiment the target is T4, SGK kinase (Homo sapiens, UniProt O00141).
T4 sequence (O00141 1-431): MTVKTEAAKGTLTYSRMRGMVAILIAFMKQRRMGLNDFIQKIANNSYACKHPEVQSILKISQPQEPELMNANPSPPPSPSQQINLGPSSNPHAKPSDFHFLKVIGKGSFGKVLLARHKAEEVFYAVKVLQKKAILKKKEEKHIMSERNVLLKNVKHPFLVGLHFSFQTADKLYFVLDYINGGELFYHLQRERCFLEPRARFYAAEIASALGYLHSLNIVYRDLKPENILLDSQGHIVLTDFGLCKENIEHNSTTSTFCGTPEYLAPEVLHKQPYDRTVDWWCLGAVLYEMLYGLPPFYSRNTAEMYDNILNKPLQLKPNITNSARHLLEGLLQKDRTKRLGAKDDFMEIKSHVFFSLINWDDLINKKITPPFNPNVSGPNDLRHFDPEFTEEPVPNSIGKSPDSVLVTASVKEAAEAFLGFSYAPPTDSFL
Put plainly: IC50 for SGK kinase (selectivity). As to conditions: for pIC50: read-out: IC50-SGK1. How it is done:
Entries identified with “1” had values above 250 nM; entries identified with “2” had values above 1 μM; entries identified with “3” had values above 10 μM.

T1 sequence (Q04759 whole entry): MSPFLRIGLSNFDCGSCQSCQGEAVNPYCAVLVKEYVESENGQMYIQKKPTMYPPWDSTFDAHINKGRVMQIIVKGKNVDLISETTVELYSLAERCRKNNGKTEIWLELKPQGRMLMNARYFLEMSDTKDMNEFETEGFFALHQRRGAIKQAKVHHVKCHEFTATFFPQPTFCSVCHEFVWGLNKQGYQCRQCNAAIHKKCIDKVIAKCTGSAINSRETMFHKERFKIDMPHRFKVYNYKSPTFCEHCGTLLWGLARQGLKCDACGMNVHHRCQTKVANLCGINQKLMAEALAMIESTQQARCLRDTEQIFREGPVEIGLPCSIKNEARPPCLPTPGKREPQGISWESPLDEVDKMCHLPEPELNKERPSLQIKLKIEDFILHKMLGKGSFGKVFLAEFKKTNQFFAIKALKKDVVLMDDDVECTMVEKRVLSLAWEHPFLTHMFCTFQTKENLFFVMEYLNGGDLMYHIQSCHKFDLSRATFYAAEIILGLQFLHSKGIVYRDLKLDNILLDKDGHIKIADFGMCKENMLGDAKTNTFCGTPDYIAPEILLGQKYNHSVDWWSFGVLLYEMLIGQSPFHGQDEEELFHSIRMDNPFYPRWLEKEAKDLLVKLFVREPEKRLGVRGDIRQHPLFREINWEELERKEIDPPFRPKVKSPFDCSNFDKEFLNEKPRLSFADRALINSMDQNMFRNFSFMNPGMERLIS

Consider `Fc1ccccc1CNc1ncc2nc(-c3c(F)cccc3Cl)n(C[C@H]3CCCNC3)c2n1` [Compound 156], for which the values for the pKi on PKCθ, on PKC delta and on PKC alpha were more than 6.00, less than 6.00 and less than 5.00, respectively. Besides, the pIC50 at SGK kinase is less than 6.00.

Regarding `Fc1ccc(CNc2ncc3c(n2)C(C[C@H]2CCNC2)C(c2c(Cl)cccc2Cl)=N3)cc1` (stereo partly shown) [Compound 130], the values for the pKi at PKCθ, on PKC delta and on PKC alpha were more than 6.00, less than 6.00 and less than 6.00, respectively. Further, the IC50-SGK1 entry at SGK kinase is on record as “Inactive”.

With `Clc1cc(Cl)cc(CNc2ncc3nc(-c4c(Cl)cccc4Cl)n(C[C@@H]4CCCNC4)c3n2)c1` [Compound 134], the pKi on PKCθ was more than 5.00; at PKC delta, less than 6.00; at PKC alpha, less than 5.00. The IC50-SGK1 entry at SGK kinase was “Inactive”.

Regarding `Fc1ccc(CNc2cc3c(cn2)nc(-c2c(F)cccc2Cl)n3C[C@@H]2CCNC2)cc1Cl` [Compound 155], the pKi on PKCθ is more than 6.00; on PKC delta, less than 6.00; at PKC alpha it was less than 6.00. On SGK kinase, the IC50-SGK1 entry is on record as “Inactive”.

With `Fc1ccc(CNc2ncc3nc(-c4c(Cl)cccc4Cl)n(CC4CCNC4)c3n2)cc1F` (stereo not shown) [Compound 142], the negative logarithm of the Ki (pKi) was more than 6.00 on PKCθ, less than 6.00 on PKC delta and less than 6.00 at PKC alpha. Moreover, the pIC50 at SGK kinase is less than 5.00.

With `NCCCCCCn1c(-c2c(Cl)cccc2Cl)nc2cnc(NCc3ccccc3F)nc21` [Compound 122], the pKi is more than 6.00 at PKCθ, less than 6.00 on PKC delta and less than 5.00 on PKC alpha. For the same molecule, the IC50-SGK1 result on SGK kinase is reported as “Inactive”.

`Fc1cccc(Cl)c1-c1nc2cnc(NCc3cc(Cl)cc(Cl)c3)nc2n1C[C@@H]1CCCNC1` [Compound 200]: the pKi was more than 5.00 on PKCθ, less than 6.00 at PKC delta and less than 5.00 at PKC alpha. Further, the IC50-SGK1 result on SGK kinase is listed as “Inactive”.

Turning to `Fc1ccc(Cl)cc1CNc1ncc2c(n1)C(C[C@H]1CCNC1)C(c1c(Cl)cccc1Cl)=N2` (stereo partly shown) [Compound 131], the pKi at PKCθ is more than 6.00; on PKC delta, less than 6.00; on PKC alpha, less than 6.00. Further, the IC50-SGK1 entry at SGK kinase is on record as “Inactive”.

Turning to `Fc1ccccc1CNc1ncc2nc(-c3c(Cl)cccc3Cl)n(CC3CCCNC3)c2n1` (stereo not shown) [Compound 117], the pKi was more than 6.00 at PKCθ, less than 6.00 on PKC delta and less than 6.00 at PKC alpha. Besides, on SGK kinase, the IC50-SGK1 entry is given as “Inactive”.

Regarding `C[C@H](Nc1ncc2nc(-c3c(Cl)cccc3Cl)n(CC3CCNC3)c2n1)c1ccccc1F` (stereo partly shown) [Compound 138], the figures for the pKi at PKCθ, on PKC delta and on PKC alpha were more than 6.00, less than 6.00 and less than 6.00, respectively. For the same molecule, the IC50-SGK1 result at SGK kinase was “Inactive”.

`Fc1ccc(F)c(CNc2ncc3nc(-c4c(F)cccc4Cl)n(C[C@H]4CCNC4)c3n2)c1` [Compound 209]: the pKi was more than 6.00 at PKCθ, less than 6.00 on PKC delta and less than 6.00 on PKC alpha. In addition, the IC50-SGK1 entry on SGK kinase is recorded as “Inactive”.

As for `Fc1ccccc1CNc1ncc2nc(-c3c(Cl)cccc3Cl)n(C[C@H]3CCNC3)c2n1` [Compound 153], the pKi on PKCθ is more than 6.00; on PKC delta it was less than 6.00; on PKC alpha it was less than 6.00. The pIC50 at SGK kinase was less than 6.00.

For `Fc1ccccc1CNc1ncc2nc(-c3c(Cl)cccc3Cl)n(CCC3CCCNC3)c2n1` (stereo not shown) [Compound 164], the results for the pKi on PKCθ, on PKC delta and at PKC alpha were more than 6.00, less than 6.00 and less than 6.00, respectively. On SGK kinase, the IC50-SGK1 result was “Inactive”.

Regarding `Fc1ccc(CNc2ncc3nc(-c4ccccc4Cl)n(C[C@@H]4CCCNC4)c3n2)cc1F` [Compound 136], the pKi on PKCθ is more than 6.00; at PKC delta, less than 6.00; on PKC alpha, less than 6.00. Moreover, the IC50-SGK1 entry on SGK kinase is listed as “Inactive”.

Regarding `NCCCCCCn1c(-c2ccccc2Cl)nc2cnc(NCc3ccccc3F)nc21` [Compound 207], the pKi on PKCθ was more than 5.00; at PKC delta, less than 6.00; on PKC alpha, less than 5.00. For the same molecule, the IC50-SGK1 result on SGK kinase is “Inactive”.

For `Fc1ccc(CNc2ncc3nc(-c4c(F)cccc4Cl)n(CC4CCNC4)c3n2)cc1F` (stereo not shown) [Compound 223], the values for the pKi on PKCθ, at PKC delta and at PKC alpha were more than 6.00, less than 6.00 and less than 6.00, respectively. At SGK kinase, the pIC50 is less than 5.00.

`Fc1cccc(CNc2ncc3nc(-c4c(Cl)cccc4Cl)n(CCC4CCNCC4)c3n2)c1` [Compound 126]: the negative-log Ki (pKi) on PKCθ is more than 6.00; on PKC delta, less than 6.00; on PKC alpha, less than 6.00. Also, the pIC50 on SGK kinase is less than 6.00.

In the case of `Clc1ccc(CNc2ncc3nc(-c4c(Cl)cccc4Cl)n(CCC4CCNCC4)c3n2)cc1` [Compound 173], the negative-log Ki (pKi) was more than 5.00 at PKCθ, less than 6.00 on PKC delta and less than 6.00 on PKC alpha. The pIC50 at SGK kinase was less than 5.00.

Turning to `Clc1ccc(CNc2cc3c(cn2)nc(-c2c(Cl)cccc2Cl)n3CCC2CCNCC2)cc1Cl` [Compound 154], the values for the pKi at PKCθ, at PKC delta and on PKC alpha were more than 5.00, less than 6.00 and less than 6.00, respectively. Also, the pIC50 on SGK kinase is less than 6.00.

For the molecule `Fc1ccc(CNc2ncc3nc(-c4c(Cl)cccc4Cl)n(CCC4CCNCC4)c3n2)cc1F` [Compound 118], the pKi on PKCθ is more than 6.00; at PKC delta it was less than 6.00; on PKC alpha, less than 6.00. In addition, the pIC50 on SGK kinase is less than 5.00.

On to `Clc1ccc(CNc2ncc3nc(-c4c(Cl)cccc4Cl)n(CC4CCNC4)c3n2)cc1Cl` (stereo not shown) [Compound 206], for which the pKi on PKCθ is more than 5.00; at PKC delta, less than 6.00; at PKC alpha, less than 5.00. At SGK kinase, the pIC50 was less than 5.00.

Turning to `Fc1ccc(CNc2ncc3nc(-c4c(F)cccc4Cl)n(C[C@H]4CCNC4)c3n2)cc1F` [Compound 174], the results for the pKi at PKCθ, at PKC delta and at PKC alpha were more than 6.00, less than 6.00 and less than 6.00, respectively. The IC50-SGK1 result at SGK kinase is “Inactive”.

With `Fc1ccc(CNc2ncc3nc(-c4c(Cl)cccc4Cl)n(C[C@@H]4CCCNC4)c3n2)c(F)c1` [Compound 109], the negative logarithm of the Ki (pKi) on PKCθ is more than 7.00; at PKC delta, less than 6.00; on PKC alpha, less than 6.00. The IC50-SGK1 entry on SGK kinase is on record as “Inactive”.

Turning to `Fc1ccc(F)c(CNc2ncc3nc(-c4c(Cl)cccc4Cl)n(C[C@@H]4CCCNC4)c3n2)c1` [Compound 104], the pKi on PKCθ was more than 7.00; at PKC delta it was less than 6.60; on PKC alpha it was less than 6.00. For the same molecule, the pIC50 at SGK kinase was less than 5.00.

Take `Fc1cccc(CNc2ncc3nc(-c4c(Cl)cccc4Cl)n(CC4CCNC4)c3n2)c1` (stereo not shown) [Compound 147]: the negative-log Ki (pKi) at PKCθ is more than 6.00; on PKC delta, less than 6.00; on PKC alpha it was less than 6.00. The IC50-SGK1 entry against SGK kinase is “Inactive”.

On to `Fc1ccccc1CNc1ncc2nc(-c3c(Cl)cccc3Cl)n(CC3CCNC3)c2n1` (stereo not shown) [Compound 150], for which the values for the pKi on PKCθ, at PKC delta and at PKC alpha were more than 6.00, less than 6.00 and less than 6.00, respectively. The IC50-SGK1 entry on SGK kinase is “Inactive”.

For the molecule `Fc1ccccc1CNc1ncc2nc(-c3c(F)cccc3Cl)n(C[C@H]3CCNC3)c2n1` [Compound 211], the pKi on PKCθ was more than 6.00; on PKC delta it was less than 6.00; at PKC alpha it was less than 6.00. For the same molecule, on SGK kinase, the pIC50 was less than 6.00.

With `Fc1ccc(CNc2ncc3nc(-c4c(Cl)cccc4Cl)n(CCC4CCNCC4)c3n2)cc1` [Compound 163], the negative-log Ki (pKi) at PKCθ is more than 6.00; on PKC delta, less than 6.00; on PKC alpha, less than 6.00. Besides, the IC50-SGK1 result against SGK kinase is recorded as “Inactive”.

For `Fc1cccc(CNc2ncc3nc(-c4c(Cl)cccc4Cl)n(C[C@H]4CCNC4)c3n2)c1` [Compound 127], the results for the negative-log Ki (pKi) at PKCθ, on PKC delta and on PKC alpha were more than 6.00, less than 6.00 and less than 6.00, respectively. The IC50-SGK1 entry against SGK kinase is on record as “Inactive”.

With `Fc1ccc(CNc2ncc3c(n2)C(C[C@@H]2CCCNC2)C(c2c(F)cccc2Cl)=N3)cc1` (stereo partly shown) [Compound 128], the pKi is more than 6.00 at PKCθ, less than 6.00 on PKC delta and less than 6.00 at PKC alpha. For the same molecule, at SGK kinase, the IC50-SGK1 entry is listed as “Inactive”.

Turning to `Clc1cccc(Cl)c1-c1nc2cnc(NCc3ccccc3)nc2n1C[C@H]1CCNC1` [Compound 133], the values for the pKi on PKCθ, at PKC delta and on PKC alpha were more than 6.00, less than 6.00 and less than 6.00, respectively. For the same molecule, the IC50-SGK1 entry at SGK kinase is “Inactive”.

As for `Fc1ccc(CNc2ncc3nc(-c4c(Cl)cccc4Cl)n(CC4CCNC4)c3n2)c(F)c1` (stereo not shown) [Compound 172], the pKi on PKCθ is more than 6.00; on PKC delta it was less than 6.00; at PKC alpha, less than 6.00. In addition, the IC50-SGK1 entry on SGK kinase is recorded as “Inactive”.

`Fc1cccc(CNc2ncc3nc(-c4c(F)cccc4Cl)n(C[C@H]4CCNC4)c3n2)c1` [Compound 205]: the pKi at PKCθ is more than 6.00; at PKC delta, less than 6.00; on PKC alpha, less than 6.00. Further, the IC50-SGK1 entry against SGK kinase was “Inactive”.

In the case of `Fc1ccc(CNc2ncc3nc(-c4ccccc4Cl)n(C[C@@H]4CCCNC4)c3n2)c(F)c1` [Compound 210], the values for the pKi at PKCθ, at PKC delta and at PKC alpha were more than 5.00, less than 6.00 and less than 5.00, respectively. On SGK kinase, the IC50-SGK1 result is reported as “Inactive”.
